“Also recorded” adds a separate entry of the source.
Experiments:
Assay type in all cases: in vivo, C57Bl/6 (B6) mice
[1] = tested on: experimental MMP mouse model (anti-mLAMα3 IgG induced); test: Conjunctival lesions by lesional histopathology (H&E) of palpebral conjunctiva in antibody transfer-induced experimental MMP; settings: for overall therapeutic effect in diseased mice: administered topically twice a day, days 12 and 28; for subepithelial inflammatory infiltrate, semi-quantification of H&E stained palpebral conjunctival biopsies / palpebral conjunctival split formation (conjunctiva score): vs vehicle; for palpebral conjunctival split formation (conjunctiva score): score 0-4
Description: (§1) Adult C57Bl/6 (B6) mice (male and female) aged at least 6 weeks old were used. Animals were maintained on a 12-h light-dark cycle at the animal facility of the University of Lübeck. Mice were held under SPF conditions and fed acidified drinking water and standard chow ad libitum. Protocols were approved by the Animal Rights Commission of the Ministry of Agriculture and Environment, Schleswig-Holstein.
For production of anti-mLAMα3 IgG, New Zealand White rabbits were immunized subcutaneously with […] of an equimolar mixture of the 2 purified recombinant proteins (aa1656-1985 and aa2756-3330 of murine Laminin alpha3 chain, produced in E. coli as disclosed by Heppe, E. N., et al., J Invest Dermatol, 2017, 137, 1709-1718) suspended in complete Freund's adjuvant. The animals were boosted twice with the same protein preparation in incomplete Freund's adjuvant. Immune sera were obtained at regular intervals and characterized by IF microscopy on cryosections of murine skin. IgG from rabbits immunized with recombinant fragments of murine mLAMα3 and from non-immunized rabbits was purified by affinity chromatography using protein G sepharose affinity chromatography (Amersham Biosciences, Heidelberg, Germany). Reactivity of IgG fractions was analyzed by IF microscopy on murine skin (Sitaru et al., J Immunol 2006, 177: 3461-8). In addition, each batch of anti-mLAMα3 IgG was characterized in vivo regarding its capability to induce experimental MMP in C57Bl/6 (B6) mice (WP1.1). From this experiment, the amount of antibodies that leads to moderate experimental MMP was determined; i.e. the amount needed to induce disease development with moderate involvement of the conjunctiva (i.e. score of 1-3 in a maximum of 50% of the animals on day 12) in the model of antibody transfer-induced MMP. For this purpose, the intensity of the separation of the conjunctiva is determined histologically. The body surface area affected should be between 3-8% at the concentration used. The conjunctiva score was set histologically post-mortem and was in a range of 0-4, depending on the intensity of the separation of the conjunctiva. The amount needed was determined to be 5 mg/injection of anti-mLAMα3 IgG.
To test DF2156A at 0.5% and reparixin at 0.5% effects on the severity of conjunctival involvement in experimental MMP, the disease was induced by repetitive subcutaneous (s.c.) injections of anti-mLAMα3 IgG (5 mg/mouse) on alternating days (0, 2, ( . . . ) and 10) into adult B6 mice, which were treated throughout the entire experiment twice a day via eyedrops. Three eyedrops per eye were given twice daily. Mice treated with solvent via eyedrops or methylprednisolone (MP) via i.p. injections were used as treatment controls. Mice s.c. injected with IgG isolated from normal rabbit serum (NR IgG) served as negative control.
The primary endpoint of this experiment was the extent of conjunctival lesions as determined by lesional histopathology (H&E stain) on day 12 and 28 following an established scoring system (Heppe, E. N., et al., J Invest Dermatol, 2017, 137, 1709-1718). In detail, biopsies from the palpebral conjunctiva were taken on day 12 and day 28 and paraffine embedded. 4.5 μm thick sections from 3 different depths of the biopsies were cut in triplicate and H&E stained for further quantification. Among the H&E stained histologies those with a palpebral conjunctival-epithelium with more than 1000 μm were used for quantification. For this score the length of the split formation (split=epithelia separation from the underlying dermal structures) is measured. The split length is categorized to a score of 0-4 with no split=0, less than 100 μm=1, less than 200 μm=2, less than 300 μm=3, more or equal 300 μm=4. Splits that occurred at the end of the tissue were excluded, because they were most likely to be of artificial nature due to the cutting. The longest split out of 9 possible sections is decisive for the final score. […]

[2] = tested on: experimental MMP mouse model (anti-mLAMα3 IgG induced); test: Macroscopic affected eye area in experimental MMP; settings: DF2156A topical eyedrops, MP i.p. once daily
Description: as §1
For production of anti-mLAMα3 IgG, New Zealand White rabbits were immunized subcutaneously with […] of an equimolar mixture of the 2 purified recombinant proteins (aa1656-1985 and aa2756-3330 of murine Laminin alpha3 chain, produced in E. coli as disclosed by Heppe, E. N., et al., J Invest Dermatol, 2017, 137, 1709-1718) suspended in complete Freund's adjuvant. […] Reactivity of IgG fractions was analyzed by IF microscopy on murine skin (Sitaru et al., J Immunol 2006, 177: 3461-8). […] From this experiment, the amount of antibodies that leads to moderate experimental MMP was determined; i.e. the amount needed to induce disease development with moderate involvement of the conjunctiva (i.e. score of 1-3 in a maximum of 50% of the animals on day 12) in the model of antibody transfer-induced MMP. For this purpose, the intensity of the separation of the conjunctiva is determined histologically. […] The amount needed was determined to be 5 mg/injection of anti-mLAMα3 IgG. […]

[3] = tested on: experimental MMP mouse model (anti-mLAMα3 IgG induced); test: Severity of oral lesions by endoscopy (oral score) in experimental MMP; settings: day 28; vs vehicle; DF2156A eyedrops, MP i.p.; maximum score 4
[4] = day 12, 0.5% eyedrops twice daily
[5] = day 28, 0.5% eyedrops twice daily
[6] = day 28, 0.5% eyedrops twice daily, listed as Reparixin

Structure (SMILES)	overall therapeutic effect in diseased mice [1]	subepithelial inflammatory infiltrate, semi-quantification of H&E stained palpebral conjunctival biopsies [1, 4]	palpebral conjunctival split formation (conjunctiva score) ([1]; day 12, DF2156A 0.5% or reparixin 0.5% eyedrops twice daily)	subepithelial inflammatory infiltrate, semi-quantification of H&E stained palpebral conjunctival biopsies [1, 5]	palpebral conjunctival split formation (conjunctiva score) [1, 5]	extent of macroscopic affected eye area ([2]; day 12)	extent of affected eye area (AUC over 28 days) ([2]; day 28)	severity of oral lesions (oral score) [3]	subepithelial inflammatory infiltrate, semi-quantification of H&E stained palpebral conjunctival biopsies [1, 6]	palpebral conjunctival split formation (conjunctiva score) [1, 6]
C[C@@H](C(=O)NS(C)(=O)=O)c1ccc(OS(=O)(=O)C(F)(F)F)cc1 [DF2156A, R(−)-2-[(4-trifluoromethanesulfonyloxy)phenyl]-N-methanesulfonyl propionamide]	overall benefit	reduced	significant reduction; also recorded: improvement	decreased; also recorded: improvement	significant reduction; also recorded: improvement	reduction	reduction	decreased		
CC(C)Cc1ccc([C@@H](C)C(=O)NS(C)(=O)=O)cc1 [reparixin, R-(−)-2-(4-isobutylphenyl)propionyl methansulfonamide]	overall benefit; also recorded: slower onset of the therapeutic effect	reduced		significantly decreased	significant reduction				reduced	reduced

— patent US20260216292A1, “CXCL8 INHIBITORS FOR USE IN THE TREATMENT OF OCULAR MUCOUS MEMBRANE PEMPHIGOID AND/OR ORAL MUCOUS MEMBRANE PEMPHIGOID” (DOMPE' FARMACEUTICI SPA, priority 2023, published 2026)
